Each molecule was assayed against human RORgammaT-Ligand Binding Domain (LBD) (Homo sapiens (Human), UniProt P51449) (assay: RORγ-Ligand Binding Domain TR-FRET assay (co-activator peptide SRC1_2 recruitment)). Conditions: HIS-tagged RORγ-LBD 3 nM, biotinylated SRC1 LXXLL peptide 100 nM, incubated overnight at 4° C., 665 nm/615 nm signal quotient; read-out: Fret IC50.
Assay type: biochemical
Source text: Activation of RORgammaT activity can be measured using, e.g., biochemical TR-FRET assay. In such an assay, interaction of cofactor-derived peptides with human RORgammaT-Ligand Binding Domain (LBD) can be measured.
To identify novel antagonists of RORgammaT, an assay was developed which employs the interaction of RORgammaT with its co-activator peptide SRC1_2. […] The RORγ-Ligand Binding Domain TR-FRET Assay was run according to the following protocol.
HIS-tagged RORγ-LBD protein was expressed in SF9 cells using a baculovirus expression system. The RORγ-LBD protein was purified by glutathione sepharose chromatography. Separately, SF9 cells not expressing any recombinant protein were lysed and the lysate was added to the purified RORγ-LBD at 0.25 μl lysate (from 10,000 SF9 cells)/nM purified protein. The mixture was then diluted in assay buffer (50 mM Tris pH 7.0, 50 mM KCl, 1 mM EDTA, 0.1 mM DTT) to obtain RORγ-LBD final concentration of 3 nM in 384-well assay plate.
Compounds to be tested were injected to the assay plate using Acoustic Droplet Ejection technology by Echo 550 liquid handler (Labcyte, Calif.).

Chain of human RORgammaT-Ligand Binding Domain (LBD) (P51449 269-508): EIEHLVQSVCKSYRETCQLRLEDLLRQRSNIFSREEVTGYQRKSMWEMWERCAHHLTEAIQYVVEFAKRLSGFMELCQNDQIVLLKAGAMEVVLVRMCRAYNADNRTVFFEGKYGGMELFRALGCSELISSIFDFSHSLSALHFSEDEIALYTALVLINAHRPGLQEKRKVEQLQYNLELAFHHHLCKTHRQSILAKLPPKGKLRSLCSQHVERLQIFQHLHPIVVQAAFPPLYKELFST

Row | IC50 | SMILES
1 | 0.021 µM | C[C@@H]1CN(C(=O)c2ccc3c(C4=CCC(C(=O)O)CC4)nn(C(=O)c4c(Cl)cccc4C(F)(F)F)c3c2)C[C@H](C)O1 (stereo partly drawn) [Example 4M, 4-(1-(2-chloro-6-(trifluoromethyl)benzoyl)-6-((2R,6S)-2,6-dimethylmorpholine-4-carbonyl)-1H-indazol-3-yl)cyclohex-3-enecarboxylic acid]
2 | 0.003 µM | CN1CCN(C(=O)c2ccc3c(C4=CCC(C(=O)O)CC4)nn(C(=O)c4c(Cl)cccc4C(F)(F)F)c3c2)CC1=O (stereo not shown) [Example 4N, 4-(1-(2-chloro-6-(trifluoromethyl)benzoyl)-6-(4-methyl-3-oxopiperazine-1-carbonyl)-1H-indazol-3-yl)cyclohex-3-enecarboxylic acid]
3 | 0.308 µM | C[C@H]1COCCN1C(=O)c1ccc2c(C3=CCC(C(=O)O)CC3)nn(C(=O)c3c(Cl)cccc3C(F)(F)F)c2c1 (stereo partly drawn) [Example 4O, 4-(1-(2-chloro-6-(trifluoromethyl)benzoyl)-6-((S)-3-methylmorpholinc-4-carbonyl)-1H-indazol-3-yl)cyclohex-3-enecarboxylic acid]
4 | 0.041 µM | CN(C(=O)c1ccc2c(C3=CCC(C(=O)O)CC3)nn(C(=O)c3c(Cl)cccc3C(F)(F)F)c2c1)C1CCOCC1 (stereo not shown) [Example 4P, 4-(1-(2-chloro-6-(trifluoromethyl)benzoyl)-6-(methyl(tetrahydro-2H-pyran-4-yl)carbamoyl)-1H-indazol-3-yl)cyclohex-3-enecarboxylic acid]
5 | 0.38 µM | C[C@@H]1COCCN1C(=O)c1ccc2c(C3=CCC(C(=O)O)CC3)nn(C(=O)c3c(Cl)cccc3C(F)(F)F)c2c1 (stereo partly drawn) [Example 4Q, 4-(1-(2-chloro-6-(trifluoromethyl)benzoyl)-6-((R)-3-methylmorpholine-4-carbonyl)-1H-indazol-3-yl)cyclohex-3-enecarboxylic acid]
6 | 0.021 µM | C[C@H]1CN(C(=O)c2ccc3c(C4=CCC(C(=O)O)CC4)nn(C(=O)c4c(Cl)cccc4C(F)(F)F)c3c2)CCO1 (stereo partly drawn) [Example 4R, 4-(1-(2-chloro-6-(trifluoromethyl)benzoyl)-6-((S)-2-methylmorpholine-4-carbonyl)-1H-indazol-3-yl)cyclohex-3-enecarboxylic acid]
7 | 0.04 µM | CN(CCO)C(=O)c1ccc2c(C3=CCC(C(=O)O)CC3)nn(C(=O)c3c(Cl)cccc3C(F)(F)F)c2c1 (stereo not shown) [Example 4S, 4-(1-(2-chloro-6-(trifluoromethyl)benzoyl)-6-((2-hydroxyethyl)(methyl)carbamoyl)-1H-indazol-3-yl)cyclohex-3-enecarboxylic acid]
8 | 1.12 µM | CC(C)NC(=O)c1ccc2c(C3=CCC(C(=O)O)CC3)nn(C(=O)c3c(Cl)cccc3C(F)(F)F)c2c1 (stereo not shown) [Example 4T, 4-(1-(2-chloro-6-(trifluoromethyl)benzoyl)-6-(isopropylcarbamoyl)-1H-indazol-3-yl)cyclohex-3-enecarboxylic acid]
9 | 0.164 µM | CC(C)N(C)C(=O)c1ccc2c(C3=CCC(C(=O)O)CC3)nn(C(=O)c3c(Cl)cccc3C(F)(F)F)c2c1 (stereo not shown) [Example 4U, 4-(1-(2-chloro-6-(trifluoromethyl)benzoyl)-6-(isopropyl(methyl)carbamoyl)-1H-indazol-3-yl)cyclohex-3-enecarboxylic acid]
10 | 0.031 µM | COCCN(C)C(=O)c1ccc2c(C3=CCC(C(=O)O)CC3)nn(C(=O)c3c(Cl)cccc3C(F)(F)F)c2c1 (stereo not shown) [Example 4V, 4-(1-(2-chloro-6-(trifluoromethyl)benzoyl)-6-((2-methoxyethyl)(methyl)carbamoyl)-1H-indazol-3-yl)cyclohex-3-enecarboxylic acid]
11 | 0.003 µM | O=C(O)C1CC=C(c2nn(C(=O)c3c(Cl)cccc3C(F)(F)F)c3cc(C(=O)N4CC(O)C4)ccc23)CC1 (stereo not shown) [Example 4W, 4-(1-(2-chloro-6-(trifluoromethyl)benzoyl)-6-(3-hydroxyazetidine-1-carbonyl)-1H-indazol-3-yl)cyclohex-3-enecarboxylic acid]
12 | 0.003 µM | O=C(O)C1CC=C(c2nn(C(=O)c3c(Cl)cccc3C(F)(F)F)c3cc(C(=O)N4CC(F)C4)ccc23)CC1 (stereo not shown) [Example 4X, 4-(1-(2-chloro-6-(trifluoromethyl)benzoyl)-6-(3-fluoroazetidine-1-carbonyl)-1H-indazol-3-yl)cyclohex-3-enecarboxylic acid]
13 | 0.159 µM | O=C(O)C1CC=C(c2nn(C(=O)c3c(Cl)cccc3C(F)(F)F)c3cc(C(=O)N4CCCCC4)ccc23)CC1 (stereo not shown) [Example 4Y, 4-(1-(2-chloro-6-(trifluoromethyl)benzoyl)-6-(piperidine-1-carbonyl)-1H-indazol-3-yl)cyclohex-3-enecarboxylic acid]
14 | 0.258 µM | CNCC(CO)OC(=O)c1ccc2c(C3=CCC(C(=O)O)CC3)nn(C(=O)c3c(Cl)cccc3C(F)(F)F)c2c1 (stereo not shown) [Example 4Z, 4-(1-(2-chloro-6-(trifluoromethyl)benzoyl)-6-(((1-hydroxy-3-(methylamino)propan-2-yl)oxy)carbonyl)-1H-indazol-3-yl)cyclohex-3-enecarboxylic acid]
15 | 0.004 µM | O=C(O)C1CC=C(c2cn(C(=O)c3c(Cl)cccc3C(F)(F)F)c3cccc(F)c23)CC1 (stereo not shown) [Example 5A, 4-(1-(2-chloro-6-(trifluoromethyl)benzoyl)-4-fluoro-1H-indol-3-yl)cyclohex-3-enecarboxylic acid]
16 | 0.002 µM | O=C(O)C1CCC(c2nn(C(=O)c3c(Cl)cccc3C(F)(F)F)c3cccc(F)c23)=CC1O (stereo not shown) [Example 6A, 4-(1-(2-chloro-6-(trifluoromethyl)benzoyl)-4-fluoro-1H-indazol-3-yl)-2-hydroxycyclohex-3-enecarboxylic acid]
17 | 0.015 µM | O=C(O)C1CC=C(c2nn(C(=O)c3c(Cl)cccc3C(F)(F)F)c3cccc(F)c23)CC1O (stereo not shown) [Example 6B, 4-(1-(2-chloro-6-(trifluoromethyl)benzoyl)-4-fluoro-1H-indazol-3-yl)-6-hydroxycyclohex-3-enecarboxylic acid]
18 | 1.88 µM | CC1(c2nn(C(=O)c3c(Cl)cccc3C(F)(F)F)c3cccc(F)c23)CCC(C(=O)O)CC1 (stereo not shown) [Example 7A, 4-(1-(2-chloro-6-(trifluoromethyl)benzoyl)-4-fluoro-1H-indazol-3-yl)-4-methylcyclohexanecarboxylic acid]
19 | 0.663 µM | C[C@]1(c2nn(C(=O)c3c(Cl)cccc3C(F)(F)F)c3cccc(F)c32)CC[C@H](C(=O)O)CC1 [Example 7B, (trans)-4-(1-(2-chloro-6-(trifluoromethyl)benzoyl)-4-fluoro-1H-indazol-3-yl)-4-methyl cyclohexanecarboxylic acid]
20 | 0.872 µM | C[C@]1(c2nn(C(=O)c3c(Cl)cccc3C(F)(F)F)c3cccc(F)c32)CC[C@@H](C(=O)O)CC1 [Example 7C, (cis)-4-(1-(2-chloro-6-(trifluoromethyl)benzoyl)-4-fluoro-1H-indazol-3-yl)-4-methylcyclohexanecarboxylic acid]
21 | 0.05 µM | C[C@]1(C(=O)O)CC[C@H](c2nn(C(=O)c3c(Cl)cccc3C(F)(F)F)c3cccc(F)c32)CC1 [Example 9A, (trans)-4-(1-(2-chloro-6-(trifluoromethyl)benzoyl)-4-fluoro-1H-indazol-3-yl)-1-methylcyclohexanecarboxylic acid]
22 | 5.02 µM | C[C@]1(C(=O)O)CC[C@@H](c2nn(C(=O)c3c(Cl)cccc3C(F)(F)F)c3cccc(F)c32)CC1 [Example 9B, (cis)-4-(1-(2-chloro-6-(trifluoromethyl)benzoyl)-4-fluoro-1H-indazol-3-yl)-1-methylcyclohexanecarboxylic acid]
23 | 0.207 µM | O=C(c1c(Cl)cccc1C(F)(F)F)n1nc([C@H]2CC[C@H](C(=O)O)CC2)c2ncccc21 [Example 11A, (trans)-4-(1-(2-chloro-6-(trifluoromethyl)benzoyl)-1H-pyrazolo[4,3-b]pyridin-3-yl)cyclohexanecarboxylic acid]
24 | 10 µM | O=C(c1c(Cl)cccc1C(F)(F)F)n1nc([C@H]2CC[C@@H](C(=O)O)CC2)c2ncccc21 [Example 11B, (cis)-4-(1-(2-chloro-6-(trifluoromethyl)benzoyl)-1H-pyrazolo[4,3-b]pyridin-3-yl)cyclohexanecarboxylic acid]
25 | 2.47 µM | O=C(O)C1CCC(O)(c2nn(C(=O)c3c(Cl)cccc3C(F)(F)F)c3cccc(F)c23)CC1 (stereo not shown) [Example 13A, 4-(1-(2-chloro-6-(trifluoromethyl)benzoyl)-4-fluoro-1H-indazol-3-yl)-4-hydroxycyclohexanecarboxylic acid]
